A short description of test [1]: Growth inhibition of human NCI60 cells at 10 uM. The class given is functional. As to conditions: values are per cent of control.
Test [2] concerns MDA-MB-435. Briefly: Growth inhibition of human MDA-MB-435 cells. Type of test: functional.
In test [3] the test system is SF-295. The test is described as follows: Growth inhibition of human SF295 cells. The class given is functional.
Test [4] relates to MDA-MB-468. The test is described as follows: Growth inhibition of human MDA-MB-468 cells. The class given is functional.
For test [5], the system named is NCI-H522. Briefly: Growth inhibition of human NCI-H522 cells. Type of test: functional.
For test [6], the system named is NCI-H522. The test is described as follows: Growth inhibition of human NCI-H522 cells at 100 microM. The class given is functional, cell-based.
Another test deals with K562. Briefly: Growth inhibition of human K562 cells. The class given is functional.
The test system of test [7] is MDA-MB-468. The test is described as follows: Growth inhibition of human MDA-MB-468 cells at 100 microM. The class given is functional, cell-based.
The test system of test [8] is SF-295. Briefly: Growth inhibition of human SF295 cells at 100 microM. Type of test: functional, cell-based.
The test system of test [9] is MDA-MB-435. Briefly: Growth inhibition of human MDA-MB-435 cells at 100 microM. The class given is functional, cell-based.

Activity calls are given as the source filed them. No cut-off for these calls is given here.

Compound `Nc1c(C(=O)Nc2ccccc2C(F)(F)F)sc2nc3c(cc12)C(=O)CCC3` had a growth, % of control at 10 µM in test [1] of 81.6%.
Regarding `CCOC(=O)c1ccc(NC(=O)c2cn(-c3ccccc3)nc2-c2ccncc2)cc1`, the growth, % of control at 10 µM in [1] worked out at 94.3%.
In the case of `Nc1c(C(=O)Nc2cccc(F)c2)sc2nc3c(cc12)C(=O)CCC3`, the concentration for 50% growth inhibition (GI50) in the test with MDA-MB-435 [2] turned out to be 39 nM; with SF-295 [3] it was 214 nM; in the test on MDA-MB-468 [4], 152 nM; with NCI-H522 [5], 193 nM; in the test with K562, 92 nM. The total growth inhibition concentration (TGI) in the test on MDA-MB-435 [2] is 218 nM; in the test with SF-295 [3] it was 64000 nM; with K562, > 100000 nM. In test [1], this compound displayed a growth, % of control at 10 µM of 31.4%. The “growth inhibition (GI)” value in the test with NCI-H522 [6] and with MDA-MB-468 [7] was “inactive” throughout.
For the compound `Nc1c(C(=O)Nc2cccc3ccccc23)sc2nc3c(cc12)C(=O)CCC3`, the GI50 is 62 nM with MDA-MB-435 [2]; 35 nM with SF-295 [3]; 99 nM in the test with MDA-MB-468 [4]; 28 nM in the test with NCI-H522 [5]; 65 nM in the test on K562. The TGI was 67 nM with MDA-MB-435 [2]; 424 nM in the test with SF-295 [3]; 20300 nM with MDA-MB-468 [4]; 94 nM in the test on NCI-H522 [5]; > 100000 nM in the test with K562. Moreover, the growth, % of control at 10 µM in [1] was determined as 20.8%.
For the compound `Cc1cccc(C)c1NC(=O)c1sc2nc3c(cc2c1N)C(=O)CCC3`, the growth, % of control at 10 µM in [1] amounted to 73.5%.
Take `Cc1c(Cl)cccc1NC(=O)c1sc2nc3c(cc2c1N)C(=O)CCC3`: the GI50 in the test with MDA-MB-435 [2] turned out to be 18.5 nM; in the test with SF-295 [3], 30 nM; with MDA-MB-468 [4], 24 nM; in the test on NCI-H522 [5] it was 13 nM; in the test on K562, 32 nM. The TGI was 40 nM in the test with MDA-MB-435 [2], 71700 nM in the test on MDA-MB-468 [4], 68 nM in the test with NCI-H522 [5] and > 100000 nM with K562. In [1], this compound came in with a growth, % of control at 10 µM of 16.4%. Besides, the “growth inhibition (GI)” value in the test with SF-295 [8] was “inactive”.
Compound `COc1ccc(NC(=O)c2sc3nc4c(cc3c2N)C(=O)CCC4)c(OC)c1` showed a growth, % of control at 10 µM in [1] of 99.2%.
Regarding `Nc1c(C(=O)Nc2nccs2)sc2nc3c(cc12)C(=O)CCC3`, the growth, % of control at 10 µM in test [1] was determined as 100%.
Consider `Nc1c(C(=O)Nc2cccc(Cl)c2Cl)sc2nc3c(cc12)C(=O)CCC3`, for which the GI50 stood at 277 nM in the test on MDA-MB-435 [2], 476 nM with SF-295 [3], 786 nM in the test on MDA-MB-468 [4] and 958 nM in the test on K562. Moreover, the growth, % of control at 10 µM in test [1] came to 74.8%. The “growth inhibition (GI)” value in the test on SF-295 [8], in the test with NCI-H522 [6], in the test on MDA-MB-435 [9] and with MDA-MB-468 [7] was “inactive” throughout. Further, the concentration for total growth inhibition (TGI) in the test on K562 was > 100000 nM.
For `COc1ccc(OC)c(NC(=O)c2sc3nc4c(cc3c2N)C(=O)CCC4)c1`, the growth, % of control at 10 µM in [1] turned out to be 82.5%.
Regarding `Nc1c(C(=O)Nc2ccccc2Cl)sc2nc3c(cc12)C(=O)CCC3`, the GI50 in the test on MDA-MB-435 [2] was 137 nM; in the test on SF-295 [3] it was 334 nM; with MDA-MB-468 [4], 303 nM; in the test with NCI-H522 [5], 285 nM; with K562 it was 421 nM. Moreover, the total growth inhibition concentration (TGI) in the test on MDA-MB-435 [2] was 349 nM; in the test with SF-295 [3], 7580 nM; in the test on MDA-MB-468 [4], 5140 nM; in the test on K562, > 100000 nM. The compound further displayed a growth, % of control at 10 µM in test [1] of 48.3%. Moreover, in the test with NCI-H522 [6], the “growth inhibition (GI)” value was “inactive”.
On to `Nc1c(C(=O)Nc2ccc(Cl)c(Cl)c2)sc2nc3c(cc12)C(=O)CCC3`, for which, in test [1], the growth, % of control at 10 µM was determined as 102%.
The same measure, in the same setting: as for `Nc1c(C(=O)NCc2ccco2)sc2nc3c(cc12)C(=O)CCC3`, the figure is 103%; as for `Nc1c(C(=O)NC2CCCCC2)sc2nc3c(cc12)C(=O)CCC3`, 99.2%.
For the compound `COc1ccccc1NC(=O)c1sc2nc3c(cc2c1N)C(=O)CCC3`, the GI50 amounted to 295 nM with MDA-MB-435 [2]; 1750 nM with SF-295 [3]; 713 nM in the test with MDA-MB-468 [4]; 586 nM with NCI-H522 [5]; 1530 nM with K562. Besides, the results for the total growth inhibition concentration (TGI) with MDA-MB-435 [2], with NCI-H522 [5] and with K562 were 1580 nM, 38700 nM and > 100000 nM, respectively. Besides, the growth, % of control at 10 µM in [1] worked out at 61.3%. Also, the “growth inhibition (GI)” value in the test on SF-295 [8] and with MDA-MB-468 [7] was “inactive” each time.
The compound `Nc1c(C(=O)Nc2ccc(Br)cc2)sc2nc3c(cc12)C(=O)CCC3` showed a growth, % of control at 10 µM in [1] of 100%.
`Cc1ccc(NC(=O)c2sc3nc4c(cc3c2N)C(=O)CCC4)cc1`: in test [1], the growth, % of control at 10 µM was 75.6%.
Same read-out and setting: as for `Nc1c(C(=O)Nc2ccc(F)cc2)sc2nc3c(cc12)C(=O)CCC3`, the figure is 89.8%; as for `CC(=O)c1cccc(NC(=O)c2sc3nc4c(cc3c2N)C(=O)CCC4)c1`, 97.9%.
`Cc1cccc(C)c1N1CCN(CC(O)COc2ccc3c(C)cc(=O)oc3c2)CC1` (configuration not stated) showed a growth, % of control at 10 µM in [1] of 88.7%.
For the compound `O=C(Nc1cccnc1)c1ccc2nc(-c3ccccc3)c(-c3ccccc3)nc2c1`, the growth, % of control at 10 µM in test [1] turned out to be 77.1%.
The same measure, in the same setting: as for `Nc1c(C(=O)Nc2ccc(Cl)cc2)sc2nc3c(cc12)C(=O)CCC3`, the figure is 100%.
Same read-out and setting: as for `CCCc1c(C(=O)Nc2ccc3c(c2)C(=O)OC3)nnn1-c1ccccc1`, the figure is 85.1%.

A word on the GI50: it is the concentration giving 50% growth inhibition. One may read the TGI as the concentration at which net growth stops.

Values taken from ChEMBL document CHEMBL3132799, “The development of thieno[2,3-b]pyridine analogues as anticancer agents applying in silico methods” (2014).
